This note sets out measurements from patent publication US8025894B2, “Innovative formulation” (Endura S.p.A., priority 2005, dated 2011).

For this data set, the system named is Bemisia tabaci (whitefly) biotype B. Put plainly: Mortality assay (leaf dip bioassay). The format is in vivo. The conditions noted are these: adult insects on treated cotton leaf discs, mortality evaluated at 24 and 48 hours. The protocol:
The “leaf dip bioassay” used for testing the activity of insecticides against Bemisia tabaci (whitefly) biotype B, was similar to that described by Cahill, M et al, Bull. Entomol. Res. 85, 181-187, 1995.
Cotton plants (Gossypium hirsutum L.) were grown without any exposure to the insecticides. The leaves were cut up into disc shapes and immersed in an aqueous solution of insecticide containing 0.01% of Agral then left to dry at 25° C.
Control leaves were immersed in Agral and distilled water only.
About 20 adult insects were placed onto the small discs of treated cotton leaf.
The insects were allowed to feed and maximum mortality was evaluated at 24 and 48 hours.
LC50% a.i. (=active ingredient) and LC99% a.i. indicate the quantity of insecticide able to achieve mortality for 50% and 99% of the insects tested.
As a comparison, the data obtained with commercial bifenthrin in the absence of the synergistic compound (PBO) and the data obtained with commercial bifenthrin in a mixture with the same quantity of PBO present in the formulation product of example 1 are given in the same table.

As for `Cc1c(COC(=O)[C@@H]2[C@H](/C=C(\Cl)C(F)(F)F)C2(C)C)cccc1-c1ccccc1` (racemic) [Bifenthrin], the LC50% a.i. (quantity of insecticide giving 50% mortality) came out at 0.01 ppm. Besides, the LC99% a.i. (quantity of insecticide giving 99% mortality) is recorded as 257 ppm.
